Laboratory results as given in patent US10233157B2, “SIK inhibitor for use in a method of treating an inflammatory and/or immune disorder” (Dana-Farber Cancer Institute, Inc., priority 2012, dated 2019).
“Also recorded” adds a separate entry of the source.

How the values were obtained:
[1] = system: LPS-stimulated macrophages; assay: Cytokine secretion in TLR-stimulated bone-marrow derived macrophages; type: cell-based, mouse
Protocol: Bone-marrow derived macrophages were differentiated for 7 days in DMEM supplemented with 5 ng/ml recombinant M-CSF (R&D systems), 2 mM glutamine, 10% foetal calf serum, penicillin and streptomycin.
Following stimulation with ligands, the cell culture medium was removed, clarified by centrifugation for 10 min at 14000×g and the concentration of TNFα, IL-6, IL-10, IL-12p40, and RANTES were measured using the Bio-Plex Pro Assay system from Bio-Rad. IFNβ was measured using an ELISA kit from R&D Systems according to the manufacturers' instructions.
RNA was extracted using the RNeasy Micro Kit (Qiagen). cDNA was generated using the iScript cDNA synthesis kit and quantified by qPCR using the SsoFast EvaGreen Supermix (Bio-Rad Laboratories). […] Fold-induction for each gene was reported relative to untreated control cells, which was set to 1. The concentrations of TNFα, IL-6, IL-10, IL-12p40, and RANTES in culture supernatants were measured using the Bio-Plex Pro Assay system from Bio-Rad. Further details in supplementary information.
Following stimulation with ligands, the cell culture medium was removed, clarified by centrifugation for 10 min at 14000×g and the concentration of TNFα, IL-6, IL-10, IL-12p40 and RANTES were measured using the Bio-Plex Pro Assay system from Bio-Rad. IL-1ra and IFNβ were measured using ELISA kits from R&D Systems.

[2] = system: TLR-stimulated macrophages; assay: qPCR of CREB-dependent gene mRNA in TLR-stimulated macrophages; type: cell-based, mouse; details: for Nurr77 mRNA: LPS-stimulated macrophages; for IL-10 mRNA: TLR/LPS-stimulated macrophages
Protocol: Bone-marrow derived macrophages were differentiated for 7 days in DMEM supplemented with 5 ng/ml recombinant M-CSF (R&D systems), 2 mM glutamine, 10% foetal calf serum, penicillin and streptomycin. […]
mRNA was extracted from macrophages using the RNeasy Micro Kit following the manufacturers' instructions (Qiagen). cDNA was generated from 1 μg of total RNA using the iScript cDNA synthesis kit and quantified by qPCR using the SsoFast EvaGreen Supermix on a CFX96 real time system (Bio-Rad Laboratories). The relative expression of each gene was calculated from Ct values using the Pfaffl method^30 and was normalized against the mRNA levels of 18S RNA. The following primers were used: IL-10-F, […]; IL-10-R, […]; c-Fos-F, […]; c-Fos-R, […]; nurr1-F, […]; nurr1-R, […]; nurr77-F, […]; nurr77-R, […]; 18S-F, […]; 18S-R, […]; IL-1ra-F, […]; IL-1ra-R, […]; SPHK1-F, […]; SPHK1-R, […]; LIGHT-F, […]; LIGHT-R, […]; ArgI-F, […]; ArgI-R, […]; IFN-F, […]; IFNγ-R, […].
[…]. Biochem J 434:93-104) using the indicated antibodies. RNA was extracted using the RNeasy Micro Kit (Qiagen). cDNA was generated using the iScript cDNA synthesis kit and quantified by qPCR using the SsoFast EvaGreen Supermix (Bio-Rad Laboratories). The relative expression of each gene was calculated from Ct values using the Pfaffl method (Pfaffl M W (2001) A new mathematical model for relative quantification in real-time RT-PCR. Nucleic Acids Res 29:e45) and was normalized against the mRNA levels of 18S or GAPDH RNA. Fold-induction for each gene was reported relative to untreated control cells, which was set to 1. The concentrations of TNFα, IL-6, IL-10, IL-12p40, and RANTES in culture supernatants were measured using the Bio-Plex Pro Assay system from Bio-Rad. Further details in supplementary information.
(§1) mRNA was extracted from cells using the RNeasy Micro Kit following the manufacturers' instructions (Qiagen). cDNA was generated from 1 μg of total RNA using the iScript cDNA synthesis kit and quantified by qPCR using the SsoFast EvaGreen Supermix on a CFX96 real time system (Bio-Rad Laboratories). The relative expression of each gene was calculated from Ct values using the Pfaffl method (5) and was normalized against the mRNA levels of 18S RNA or GAPDH. Results are reported relative to untreated control cells, which was set to 1. The following primers were used: […]

CRTC3 = CRTC3 nuclear translocation (immunofluorescence, live imaging); type: cell-based; details: WT CRTC3
From the text: FIGS. 15A to 15C. SIK inhibitors induce the dephosphorylation of CRTC3 at Ser62, Ser162, Ser329 and Ser370 and its translocation to the nucleus. (FIG. 15A) HEK293 cells were transfected with FLAG-CRTC2, FLAG-CRTC3 or FLG-CRTC3[S162A]. Aliquots of the cell extracts were subjected to SDS-PAGE and immunoblotting using an antibody that recognizes CRTC2 phosphorylated at Ser171. […] (FIG. 15B) HEK293 cells were transfected with FLAG-CRTC3, FLAG-CRTC3[S62A/S162A/S329A/S370A] (termed CRTC3-4A) or with empty vector (FLAG-ev). […]. (FIG. 15C) Inhibition of SIKs promotes the translocation of endogenous CRTC3 to the nucleus. […].
RAW264.7 cells were grown on glass coverslips and treated with inhibitors for 1 h. Cells were then fixed for 10 min in 3.7% paraformaldehyde, permeabilized for 5 min using 0.1% Triton X-100 in PBS and blocked for 45 min using 3% BSA in PBS. Cells were stained with anti-CRTC3 (Abcam 1:200) and anti-α-tubulin (Santa Cruz 1:500) followed by anti-rabbit-alexa488 and anti-mouse-alexa594 (Invitrogen 1:500), respectively. Antibodies were diluted in blocking buffer and incubated with the cells for 45 min. […] Images were recorded every 30 s for 1.5 min prior to the addition of drug after which cells were imaged for a further 60 min.

SIK isoforms = assay: Kinase assays, SIK isoforms; type: biochemical; details: in vitro
AMPK-related kinases = type: biochemical; details: members of the AMPK subfamily other than SIKs
Protocol: (§2) Recombinant SIK1, SIK2, SIK3 were expressed as GST-fusion proteins in HEK293 cells and purified on a glutathione-Sepharose column. […] FLAG-CRTC3 was immunoprecipitated using anti-FLAG M2 agarose, washed in kinase buffer (50 mM Tris/HCl pH 7.4, 10 mM Mg acetate, 0.1 mM EGTA, 2 mM DTT) and reactions initiated by adding 4 U/ml recombinant kinase with 0.1 mM ATP (specific activity 3000 cpm/pmol). Phosphorylation of CRTC3 was monitored by autoradiography as well as immunoblotting using phosphospecific antibodies raised against Ser162, Ser329 and Ser370. […] Kinase profiling was performed as previously described (7) and performed by the International Centre for Kinase Profiling (www.kinase-screen.mrc.ac.uk).

[3] = system: protein kinases that possess a threonine residue at the gatekeeper site (Src, Lck, Yes, BTK, FGF and Ephrin receptors); assay: Kinase profiling, kinases with threonine at the gatekeeper site; type: biochemical; details: kinase panel; 1 μM KIN112, 0.1 μM HG-9-91-01
Protocol: as §2

LKB1−/− cells = assay: CREB-dependent gene transcription in IL-1 stimulated LKB1+/+ and LKB1−/− MEFs; type: cell-based, mouse
LPS-stimulated BMDMs = assay: Expression of macrophage markers in LPS-stimulated BMDMs (qPCR); type: cell-based, mouse
Protocol: FIGS. 10A to 10E. Inhibition of the LKB1-SIK-CRTC3-IL10 signaling axis drives the expression of markers of regulatory macrophages. (FIG. 10A) Effect of SIK inhibitors on the LPS-stimulated expression of LIGHT, SPHK1, Arg1 and IL-1ra (n=4, mean±SD). […] (FIG. 10C) Elevated expression of markers of regulatory macrophage in LKB1−/− macrophages. BMDMs were generated from LysM-Cre/LKB1+/+ and LysM-Cre/LKB1flox/flox mice and stimulated with 100 ng/ml LPS (mean±SD, n=3). (FIG. 10D) CRTC3 is required for the induction of markers of regulatory macrophages. […] LIGHT and SPHK1 mRNA was measured at 2 h and Arg1 at 8 h post-LPS stimulation (mean±SD, n=4). […] The experiment was carried out as in (FIG. 10D) except that BMDMs were generated from IL-10+/+ and IL-10−/− mice (mean±SD, n=4).
as §1

LPS-injected mice = assay: Cytokine levels in serum of LPS-challenged mice; type: in vivo, mouse
Protocol: C57BL/6 mice (8-12 week old male mice) were injected with vehicle control or 0-30 mg/kg of MRT68771. After 30 min, LPS was introduced by intraperitoneal injection (3.5 mg/kg). One hour later, the mice were sacrificed and the concentrations of TNFα, IL-10 and IFNβ in the sera were measured as described above.

[4] = Drug metabolism and pharmacokinetic properties; details: compared with MRT67307
MARK isoforms = details: previously reported; cited from earlier work
NUAK isoforms = details: previously reported; cited from earlier work
IKK-related kinases = details: previously reported; cited from earlier work

Molecule: CC1(C)C(=O)N([C@H]2CCc3c(O)cccc32)c2nc(Nc3cccc(CN4CCCC4)c3)ncc21 [MRT199665, 7-[(1S)-4-hydroxy-2,3-dihydro-1H-inden-1-yl]-5,5-dimethyl-2-{[3-(pyrrolidin-1-ylmethyl)phenyl]amino}-5,7-dihydro-6H-pyrrolo[2,3-d]pyrimidin-6-one]
- IL-10 secretion ([1]; LPS-stimulated macrophages): stimulate IL-10 secretion in a dose dependent manner; also recorded: increased
- Nurr77 mRNA [2]: increased
- IL-10 mRNA [2]: increased
- CRTC3 nuclear translocation (CRTC3): translocates to the nucleus

Molecule: COc1ccc(N(C(=O)Oc2c(C)cccc2C)c2ccnc(Nc3ccc(N4CCN(C)CC4)cc3)n2)c(OC)c1 [KIN112]
- inhibition of SIKs (SIK isoforms): potent inhibitor; also recorded: potently inhibited; also recorded: possess SIK inhibitory activity
- inhibition of AMPK-related kinases (AMPK-related kinases): did not inhibit any other member
- inhibition of protein kinases with a threonine residue at the gatekeeper site [3]: potent inhibitor; also recorded: inhibited
- IL-10 secretion ([1]; LPS-stimulated macrophages): stimulate IL-10 secretion in a dose dependent manner; also recorded: increased
- pro-inflammatory cytokine secretion ([1]; LPS-stimulated macrophages): greatly suppressed
- IL-10 secretion ([1]; in response to TLR ligands): high levels of IL-10
- IL-12p40 secretion ([1]; in response to TLR ligands): low levels of IL-12p40
- Nurr77 mRNA [2]: increased
- IL-10 mRNA [2]: increased
- CREB-dependent gene transcription (LKB1−/− cells; LKB1+/+ cells): enhanced
- transcription of Nurr1 and Nurr77 (LKB1−/− cells; LKB1−/− cells): only be increased to a small extent
- IL-1ra mRNA (LPS-stimulated BMDMs; LPS-stimulated macrophages): greatly increased
- mRNAs of regulatory macrophage markers (arginase-1, SPHK1, LIGHT) (LPS-stimulated BMDMs; TLR/LPS-stimulated macrophages): stimulating the production
- switch of macrophage programme from classically activated towards regulatory phenotype (LPS-stimulated BMDMs; quiescent macrophages): switched their maturation programme from the classically activated route towards the regulatory phenotype

Molecule: Cn1cc(-c2ccc(Nc3ncc(C4CC4)c(NCCCNC(=O)C4CCC4)n3)cc2)cn1 [MRT68771]
- inhibition of SIKs (SIK isoforms): possess SIK inhibitory activity
- IL-10 secretion ([1]; LPS-stimulated macrophages): elevated levels of IL-10
- pro-inflammatory cytokine secretion ([1]; LPS-stimulated macrophages): reduced levels of pro-inflammatory cytokines
- IL-10 in serum (LPS-injected mice): elevated levels of IL-10
- pro-inflammatory cytokines in serum (LPS-injected mice): reduced levels of pro-inflammatory cytokines
- drug metabolism and pharmacokinetic properties [4]: improved drug metabolism and pharmacokinetic properties

Molecule: O=C(NCCCNc1nc(Nc2cccc(NC(=O)N3CCCC3)c2)ncc1I)c1cccs1 [BX795]
- inhibition of MARKs (MARK isoforms): potent inhibitor
- inhibition of NUAK1 (NUAK isoforms): potent inhibitor
- inhibition of IKK-related kinases (IKK-related kinases): potent inhibitor

B1: IL-4: Murine IL-4 from Peprotech, control in macrophage marker experiments (protein, UniProt P07750 21-140, looked up)
Interleukin-4: HIHGCDKNHLREIIGILNEVTGEGTPCTEMDVPNVLTATKNTTESELVCRASKVLRIFYLKHGKTPCLKKNSSVLMELQRLFRAFRCLDSSISCTMNESKSTSLKDFLESLKSIMQMDYS
- expression of FIZZ, Ym1 or Mgl2 (wound-healing M2a markers) (LPS-stimulated BMDMs): induced the expression
- expression of LIGHT or SPHK1 (LPS-stimulated BMDMs; control experiments): not LIGHT or SPHK1
